Reference: patent US20110160262A1, “Method of treating retinal vein occlusion” (SANTEN PHARMACEUTICAL CO., LTD., priority 2005, published 2011)

Columns and labels:
trypsin = trypsin (Homo sapiens, UniProt P07477); details: known activity; cited from earlier work
[1] = test system: laser-induced choroidal neovascularization; test: laser-induced choroidal neovascularization in rats; type: in vivo; details: rat
From the text: In order to study the inhibitory effect of compound represented by the general formula [I] or a salt thereof on angiogenesis, the effects of nafamostat, FUT-187 and camostat, which are compounds represented by the general formula [I] or salts thereof, on laser-induced choroidal neovascularization in rats were studied. As a comparative compound, ethyl-4-(6-guanidinohexanoyloxy)benzoate methanesulfonate (hereinafter referred to as “gabexate”) represented by the following formula [III] was used.
A rat was given systemic anesthesia by intramuscular administration of 1 ml/kg of a mixed solution of a 5% (w/v) ketamine hydrochloride injectable solution and a 2% xylazine hydrochloride injectable solution (7:1), and a 0.5% (w/v) tropicamide-0.5% phenylephrine hydrochloride ophthalmic solution was instilled into the eyes to cause mydriasis, and then photocoagulation was carried out with a krypton laser photocoagulation apparatus. The photocoagulation was carried out in a posterior pole portion of ocular fundus at eight spots per eye sparsely by focusing on the retinal deep layer avoiding thick retinal vessels (coagulation conditions: spot size: 100 μm, output: 100 mW, coagulation time: 0.1 sec.). After the photocoagulation, the ocular fundus was photographed, and the site where the laser was irradiated was confirmed.
Nafamostat was dissolved in a 5% (w/v) glucose solution (prepared by dissolving D-glucose in physiological saline) to give a final concentration of 25 mg/ml, and the resulting nafamostat solution was intraperitoneally administered once a day at a dose of 1 ml/kg for 7 days including the day of surgery from the photocoagulation surgery. In the same manner, FUT-187 solutions at 25 mg/ml and 125 mg/ml and a camostat solution at 125 mg/ml were prepared, and each of the solutions was intraperitoneally administered once a day at a dose of 1 ml/kg for 7 days including the day of surgery from the photocoagulation surgery. In a comparative compound administration group, a solution obtained by dissolving gabexate in a glucose solution to give a final concentration of 50 mg/ml was administered in the same manner as above. In a vehicle administration group, a 5% (w/v) glucose solution was administered in the same manner.
On day 7 after photocoagulation, 0.1 ml of a 10% fluorescein solution was injected into the tail vein, and fluorescence fundus photography was carried out. In the fluorescence fundus photography, a spot where fluorescence leakage was not observed (absence of angiogenesis) was judged as negative, and a spot where fluorescence leakage was observed was judged as positive. When there are two photocoagulation sites where a little fluorescence leakage was observed, they were judged as positive (presence of angiogenesis). A neovascularization incidence rate was calculated in accordance with Equation 1. The neovascularization incidence rate was calculated based on the positive spot number relative to the 8 spots irradiated with a laser, and a choroidal neovascularization inhibition rate was calculated in accordance with Equation 2. The number of animals in each administration group is 4 to 7.
Each of nafamostat and FUT-187 was dissolved in a 1% (w/v) methyl cellulose solution to give a final concentration of 20 mg/ml, and the resulting solution was orally administered three times a day at a dose of 5 ml/kg for 7 days including the day of surgery from the photocoagulation surgery. In the same manner, camostat was suspended in a 1% (w/v) methyl cellulose solution to give a final concentration of 20 mg/ml, and the resulting suspension was orally administered three times a day at a dose of 5 ml/kg for 7 days including the day of surgery from the photocoagulation surgery. In a vehicle administration group, a 1% (w/v) methyl cellulose solution was administered in the same manner.
The evaluation was carried out with the same method as described above. The case number in each administration group is 6 to 7. […]

[2] = intraperitoneal administration (Table 1)
[3] = intraperitoneal, 25 mg/kg/day once a day for 7 days, evaluated day 7 after photocoagulation
[4] = oral, 300 mg/kg/day (three times a day) for 7 days, evaluated day 7
[5] = oral, intravitreal and subconjunctival administration (Tables 2 to 4)

Row | SMILES | trypsin inhibitory activity (in words) (trypsin) | choroidal neovascularization inhibitory effect (in words) [1, 2] | Choroidal neovascularization inhibition rate (%) ([1]; intraperitoneal, 50 mg/kg/day once a day for 7 days, evaluated day 7 after photocoagulation) | Choroidal neovascularization inhibition rate (%) [1, 3] | Choroidal neovascularization inhibition rate (%) ([1]; intraperitoneal, 125 mg/kg/day once a day for 7 days, evaluated day 7 after photocoagulation) | Choroidal neovascularization inhibition rate (%) [1, 4] | choroidal neovascularization inhibitory effect (in words) [1, 5] | Choroidal neovascularization inhibition rate (%) ([1]; intravitreal, 10 nmol/eye, immediately after photocoagulation and on day 3, evaluated day 7) | Choroidal neovascularization inhibition rate (%) ([1]; subconjunctival, 100 μg/eye/day once a day, evaluated day 7)
1 | CCOC(=O)c1ccc(OC(=O)CCCCCNC(=N)N)cc1 [Gabexate, ethyl-4-(6-guanidinohexanoyloxy)benzoate methanesulfonate] | has a trypsin inhibitory activity | did not exhibit a choroidal neovascularization inhibitory effect | −30.2% | – | – | – | – | – | –
2 | N=C(N)c1ccc2cc(OC(=O)c3ccc(NC4=NCCN4)cc3)ccc2c1 [FUT-187, 6′-amidino-2′-naphthyl-(4-(4,5-dihydro-1H-2-imidazolyl)amino) benzoate dimethanesulfonate] | have the same activity | exhibited a high choroidal neovascularization inhibition rate | – | 40.1% | 71.4% | 39.5% | exhibits an excellent choroidal neovascularization inhibitory effect | – | –
3 | N=C(N)Nc1ccc(C(=O)Oc2ccc3cc(C(=N)N)ccc3c2)cc1 [Nafamostat, 6′-amidino-2′-naphthyl-4-guanidinobenzoate dimethanesulfonate] | have the same activity | exhibited a high choroidal neovascularization inhibition rate | – | 50.5% | – | 32% | exhibits an excellent choroidal neovascularization inhibitory effect | 26.5% | 51.6%
